Measurements reported in patent US20250333407A1, “Compounds and Their Use for Treatment of Hemoglobinopathies” (Bristol-Myers Squibb Company, priority 2024, published 2025).

Experiments:
Assay type in all cases: cell-based
[1] = biological target: T1, ZBTB7A (Homo sapiens, UniProt O95365+Q96SW2); assay: HUDEP-2 ZBTB7A HiBiT degradation assay; settings: HiBiT-tagged ZBTB7A degradation in HUDEP-2 cells, 24 hours of treatment; read-out: ZBTB7A EC50
T1 construct: HUDEP-2 cells engineered to express a HiBiT tag in either the WIZ (Widely interspaced zinc finger) or ZBTB7A
In short: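 HiBiT-tagged HUDEP-2 cells were pre-cultured 48 h in IMDM with EPO, SCF, doxycycline and 5% human plasma, then exposed to compounds at 1.0×10^6 cells/ml for 24 h at 37 °C. Nano-Glo HiBiT lytic luminescence, normalised to DMSO over 10 concentrations, gave EC50 and Y-min.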

[2] = system: HbF; assay: HbF HiBiT induction assay in HUDEP-2 cells; settings: HUDEP-2 cells with HiBiT tag in HBG1/2, 72 hours of treatment; area under the dose response curve, higher AUC = greater HbF induction
In short: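 HUDEP-2 cells carrying a HiBiT tag on HBG1/2 were exposed to compounds for 72 h at 37° C, 5% CO2, in IMDM with EPO, hSCF, DOX, transferrin, insulin, heparin and 5% human plasma. HiBiT luminescence was read after lytic detection; HbF induction is expressed as dose-response AUC, alongside EC50 and Ymax.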

[3] = biological target: T2, WIZ (Homo sapiens, UniProt O95785+Q96SW2); assay: HUDEP-2 WIZ HiBiT degradation assay; settings: HiBiT-tagged WIZ degradation in HUDEP-2 cells, 24 hours of treatment; read-out: WIZ EC50
T2 construct: HUDEP-2 cells engineered to express a HiBiT tag in either the WIZ (Widely interspaced zinc finger) or ZBTB7A
In short: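 HiBiT-tagged HUDEP-2 cells at 1.0×10^6 cells/ml in SFEM II with SCF, EPO, dexamethasone and doxycycline, treated 24 h at 37 °C with a 10-point series ([…]). Luminescence after HiBiT lytic detection, normalized to DMSO; EC50 and Y-min from fitted curves.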

T1 sequence (O95365 whole entry): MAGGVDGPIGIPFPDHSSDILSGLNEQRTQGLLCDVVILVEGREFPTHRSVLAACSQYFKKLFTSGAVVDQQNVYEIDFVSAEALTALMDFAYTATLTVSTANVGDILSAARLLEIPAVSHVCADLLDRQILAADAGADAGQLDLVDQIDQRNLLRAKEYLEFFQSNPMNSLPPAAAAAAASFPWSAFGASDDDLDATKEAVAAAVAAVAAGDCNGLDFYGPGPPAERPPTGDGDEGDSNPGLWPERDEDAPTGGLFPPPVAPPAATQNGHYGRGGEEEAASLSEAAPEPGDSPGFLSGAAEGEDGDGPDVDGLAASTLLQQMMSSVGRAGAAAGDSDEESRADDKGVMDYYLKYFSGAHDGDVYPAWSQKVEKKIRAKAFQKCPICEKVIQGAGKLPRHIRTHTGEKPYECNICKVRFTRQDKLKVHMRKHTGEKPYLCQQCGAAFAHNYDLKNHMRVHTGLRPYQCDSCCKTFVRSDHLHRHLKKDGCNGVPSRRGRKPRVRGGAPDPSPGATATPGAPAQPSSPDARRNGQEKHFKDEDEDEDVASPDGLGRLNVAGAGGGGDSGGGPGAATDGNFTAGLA
T1 sequence (Q96SW2 whole entry): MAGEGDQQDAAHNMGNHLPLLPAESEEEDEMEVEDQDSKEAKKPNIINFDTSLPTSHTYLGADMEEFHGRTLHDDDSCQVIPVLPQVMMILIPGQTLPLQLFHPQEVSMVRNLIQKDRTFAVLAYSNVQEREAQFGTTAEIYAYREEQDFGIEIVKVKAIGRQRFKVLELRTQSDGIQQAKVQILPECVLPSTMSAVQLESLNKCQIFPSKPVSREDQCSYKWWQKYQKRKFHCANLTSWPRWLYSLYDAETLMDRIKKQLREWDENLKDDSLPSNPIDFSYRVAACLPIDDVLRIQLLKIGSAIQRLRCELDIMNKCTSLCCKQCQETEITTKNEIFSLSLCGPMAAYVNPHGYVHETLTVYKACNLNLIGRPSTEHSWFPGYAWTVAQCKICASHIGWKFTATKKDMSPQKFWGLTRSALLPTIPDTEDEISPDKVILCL
T1 sequence (Q16531 whole entry partner): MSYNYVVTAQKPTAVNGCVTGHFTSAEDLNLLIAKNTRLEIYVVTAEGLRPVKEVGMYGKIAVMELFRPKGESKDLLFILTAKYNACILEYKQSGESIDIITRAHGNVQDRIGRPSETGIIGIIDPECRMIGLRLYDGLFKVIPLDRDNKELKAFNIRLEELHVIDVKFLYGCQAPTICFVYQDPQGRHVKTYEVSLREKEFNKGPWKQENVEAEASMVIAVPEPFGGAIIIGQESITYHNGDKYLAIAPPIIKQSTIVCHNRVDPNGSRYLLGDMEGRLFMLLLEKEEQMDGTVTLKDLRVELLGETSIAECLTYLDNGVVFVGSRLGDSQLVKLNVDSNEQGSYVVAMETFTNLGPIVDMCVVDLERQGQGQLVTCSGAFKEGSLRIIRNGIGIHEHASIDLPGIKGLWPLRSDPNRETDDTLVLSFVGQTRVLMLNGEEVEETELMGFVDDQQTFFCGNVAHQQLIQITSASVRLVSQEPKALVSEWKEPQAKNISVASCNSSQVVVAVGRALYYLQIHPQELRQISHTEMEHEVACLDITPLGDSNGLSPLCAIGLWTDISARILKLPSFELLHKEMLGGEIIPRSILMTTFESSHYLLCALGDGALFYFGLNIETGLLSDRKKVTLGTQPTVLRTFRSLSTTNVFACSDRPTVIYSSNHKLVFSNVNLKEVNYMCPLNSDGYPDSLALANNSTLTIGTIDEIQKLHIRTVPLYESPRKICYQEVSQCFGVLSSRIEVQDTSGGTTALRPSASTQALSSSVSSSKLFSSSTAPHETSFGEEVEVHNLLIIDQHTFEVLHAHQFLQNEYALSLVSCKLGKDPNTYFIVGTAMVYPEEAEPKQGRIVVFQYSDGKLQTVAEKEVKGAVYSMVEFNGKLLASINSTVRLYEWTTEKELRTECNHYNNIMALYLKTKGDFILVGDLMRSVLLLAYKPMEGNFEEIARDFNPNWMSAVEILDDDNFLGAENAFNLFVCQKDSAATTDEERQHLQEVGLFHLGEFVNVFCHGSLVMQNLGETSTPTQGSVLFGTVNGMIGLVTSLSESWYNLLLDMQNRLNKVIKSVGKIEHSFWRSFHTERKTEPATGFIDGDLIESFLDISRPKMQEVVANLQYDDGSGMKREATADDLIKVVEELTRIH
T2 sequence (O95785 whole entry): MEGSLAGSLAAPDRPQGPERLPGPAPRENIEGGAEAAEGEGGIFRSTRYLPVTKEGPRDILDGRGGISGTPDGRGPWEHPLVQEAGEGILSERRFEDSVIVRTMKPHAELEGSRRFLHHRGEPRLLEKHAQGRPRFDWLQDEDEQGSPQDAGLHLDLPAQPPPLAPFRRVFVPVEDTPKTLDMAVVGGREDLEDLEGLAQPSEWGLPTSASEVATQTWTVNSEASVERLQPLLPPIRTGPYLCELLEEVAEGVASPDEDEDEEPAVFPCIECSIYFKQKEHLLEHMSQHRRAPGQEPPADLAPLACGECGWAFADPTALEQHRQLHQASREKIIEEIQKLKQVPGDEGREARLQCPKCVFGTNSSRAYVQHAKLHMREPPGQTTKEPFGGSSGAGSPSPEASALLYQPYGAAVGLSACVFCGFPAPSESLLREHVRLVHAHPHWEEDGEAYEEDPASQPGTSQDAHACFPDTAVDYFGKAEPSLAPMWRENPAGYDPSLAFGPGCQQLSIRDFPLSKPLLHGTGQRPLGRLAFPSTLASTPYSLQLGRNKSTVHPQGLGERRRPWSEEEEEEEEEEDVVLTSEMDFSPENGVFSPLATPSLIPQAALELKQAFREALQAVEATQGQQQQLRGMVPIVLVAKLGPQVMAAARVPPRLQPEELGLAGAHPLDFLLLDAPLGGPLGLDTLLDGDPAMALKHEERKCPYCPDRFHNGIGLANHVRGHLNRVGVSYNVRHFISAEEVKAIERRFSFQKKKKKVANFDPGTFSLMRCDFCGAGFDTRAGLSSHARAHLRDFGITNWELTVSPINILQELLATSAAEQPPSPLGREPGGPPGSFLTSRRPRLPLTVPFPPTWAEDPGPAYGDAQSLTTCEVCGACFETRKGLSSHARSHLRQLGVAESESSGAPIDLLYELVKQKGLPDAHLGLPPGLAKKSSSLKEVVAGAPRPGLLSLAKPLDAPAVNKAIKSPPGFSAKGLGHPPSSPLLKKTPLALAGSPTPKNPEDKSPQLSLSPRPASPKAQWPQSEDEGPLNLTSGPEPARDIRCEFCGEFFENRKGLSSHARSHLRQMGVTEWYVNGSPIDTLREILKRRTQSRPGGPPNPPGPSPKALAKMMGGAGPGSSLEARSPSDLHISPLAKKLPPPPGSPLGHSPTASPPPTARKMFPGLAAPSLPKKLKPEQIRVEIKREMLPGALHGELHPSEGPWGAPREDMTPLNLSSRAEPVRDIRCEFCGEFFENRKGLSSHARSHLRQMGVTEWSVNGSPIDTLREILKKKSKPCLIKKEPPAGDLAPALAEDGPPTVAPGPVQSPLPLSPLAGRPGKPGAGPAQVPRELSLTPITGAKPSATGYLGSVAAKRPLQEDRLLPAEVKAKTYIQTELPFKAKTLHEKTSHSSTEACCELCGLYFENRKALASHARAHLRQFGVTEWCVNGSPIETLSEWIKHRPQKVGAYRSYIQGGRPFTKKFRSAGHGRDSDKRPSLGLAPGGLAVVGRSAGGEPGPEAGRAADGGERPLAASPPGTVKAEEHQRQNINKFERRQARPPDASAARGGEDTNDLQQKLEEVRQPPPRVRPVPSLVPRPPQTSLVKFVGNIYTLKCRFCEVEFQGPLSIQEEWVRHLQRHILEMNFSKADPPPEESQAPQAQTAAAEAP
T2 sequence (Q96SW2 whole entry): as the sequence (Q96SW2 whole entry) above
T2 sequence (Q16531 whole entry partner): as the sequence (Q16531 whole entry partner) above

DC50 [1] [nM]	DC50 [3] [nM]	Compound	HBF AUC [2]
35	6	CC(=O)N1CCC(c2cc3c(cc2Nc2cccc4c2C(=O)N([C@H]2CCC(=O)NC2=O)C4=O)N(C)C(=O)[C@H](C)O3)CC1 [Compound 31, 4-(((S)-7-(1-acetylpiperidin-4-yl)-2,4-dimethyl-3-oxo-3,4-dihydro-2H-benzo[b][1,4]oxazin-6-yl)amino)-2-((S)-2,6-dioxopiperidin-3-yl)isoindoline-1,3-dione]	+++ (+++ = AUC ≥ 150)
4	4	CO[C@H]1CC[C@H](c2cc3c(cc2Nc2cccc4c2C(=O)N([C@H]2CCC(=O)NC2=O)C4=O)N(C)C(=O)CC3)CC1 [Compound 91, 2-((S)-2,6-dioxopiperidin-3-yl)-4-((6-((1r,4S)-4-methoxycyclohexyl)-1-methyl-2-oxo-1,2,3,4-tetrahydroquinolin-7-yl)amino)isoindoline-1,3-dione]	++ (++ = 100 ≤ AUC < 150)
24	21	COc1cc(-c2cc3c(cc2Nc2cccc4c2C(=O)N([C@H]2CCC(=O)NC2=O)C4=O)N(C)C(=O)[C@@H](C)O3)ccn1 [Compound 33, 2-((S)-2,6-dioxopiperidin-3-yl)-4-(((R)-7-(2-methoxypyridin-4-yl)-2,4-dimethyl-3-oxo-3,4-dihydro-2H-benzo[b][1,4]oxazin-6-yl)amino)isoindoline-1,3-dione]	+ (+ = 15 ≤ AUC < 100)
